Assay type in all cases: cell-based, human
In assay [1] the test system is HCT116 cells. In words: Cell-in-cell structures (cellular cannibalism) by confocal microscopy of CMFDA/CMTMR-labelled cocultures. As to conditions: for generation of cell-in-cell structures after supplementation with nucleotide: ATP or UTP supplementation, ROCK-dependent; for generation of cell-in-cell structures after TP53 inactivation in presence of inhibitor: TP53 inactivated by PFT-α, knockdown or knockout, 20 μM Y27632 or 100 μM z-VAD. On the procedure: FIG. 1. Identification of TP53 as repressor of cellular cannibalism. (A) Schematic representation of experimental procedure used to evaluate the ability to tumor suppressive depletion to enhance cell in cell internalization. (B) Frequencies of cell-in-cell structures induced by depletion of tumor suppressive proteins in HCT116. After 48 hours of transfection indicated siRNA, colorectal HCT116 cells were stained with CMTMR and CMFDA cell trachers, mixed and cultured during 24 hours. Quantification of cell-in-cell structures induced by depletions of tumor suppressor proteins was realized by confocal microscopy. The frequencies of cell-in-cell structures were determined for at least 300 cells in 3 independent experiments (mean+/−s.e.m, p<0.001). (C) Detection of cell-in-cell structures induced by depletion of TP53, as visualized by confocal microscopy. […] Representative micrographs of xy (scale bar, 5 μm), xz (scale bar, 4 μm) and yz (scale bar, 1 μm) optical sections are shown. Images are representative of at least four independent experiments. (D) Representative micrographs of cell-in-cell structures showing that after depletion of TP53 by two specific siRNAs, (red) CMTR labeled HCT116 cells internalized (red) CMTR labeled HCT116 cells (noted R(R)) or (green) CMFDA labeled HCT116 cells (noted R(G)), and (green) CMFDA labeled HCT116 cells engulfed (red) CMTR labeled HCT116 cells (noted G(R)) or (green) CMFDA labeled HCT116 cells (noted G(G)) (scale, 5 μm). (E) Frequencies of cell-in-cell structures showing R(R), R(G), G(R) or G(G) cell internalization detected after depletion of TP53 by two distinct siRNAs (as compare to control). The frequencies of cell-in-cell structures were determined for at least 300 cells in 3 independent experiments (mean+/−s.e.m, p<0.001). (F) Cell-in-cell structures induced by 10 μM PFT-α, TP53 knockdown, or TP53 knockout in HCT116. Cell-in-cell structures were identified by b-catenin (white), CMFDA (green) and CMTMR (red) staining of internalizing HCT116 cells. Images are representative of at least four independent experiments (scale bar in a, 5 μm and scale bar in b 1 μm). (G) Frequencies of cell-in-cell structures induced by 10 μM PFT-α, TP53 knockdown, or TP53 knockout in HCT116 in presence or in absence of 20 μM of ROCK inhibitor (Y27632) or 100 μM of pan-caspase inhibitor (z-VAD). The frequencies of cell-in-cell structures were determined for at least 300 cells in 3 independent experiments (mean+/−s.e.m, p<0.001). (H) Detection of cell-in-cell structures in TP53 depleted human diploid fibroblasts strain WI38, as visualized by confocal microscopy. […] Representative micrographs of xy (scale bar, 5 μm), xz (scale bar, 4 μm) and yz (scale bar, 1 μm) optical sections are shown. Images are representative of at least four independent experiments. (1) Frequencies of cell-in-cell structures induced by depletion of TP53 in human diploid fibroblasts strain WI38. The frequencies of cell-in-cell structures were determined for at least 300 cells in 3 independent experiments (mean+/−s.e.m, p<0.001).
After inactivation of TP53 or Δ133TP53, primary human fibroblasts, primary human keratinocytes, colorectal carcinoma Tp53^+/+ HCT116 cells and pancreatic PANC813 cells were incubated during 24 hours in presence or in absence of indicated concentrations of the pharmacological inhibitor of purinergic P2Y2 receptor Kaempferol (Sigma), the pharmacological inhibitor of ROCK Y27632 (Sigma) or the pan-caspase inhibitor zVAD-fmk (100 uM, BD Biosciences), ATP, UTP and soluble apyrase used in indicated experiments were obtained from Sigma.
After 48 hours of transfection with specific indicated siRNA, cells were stained with 10 μM of 5-chloromethylfluorescein diacetate (Cell Tracker Green CMFDA, Invitrogen) or with 10 μM of 5-(and-6)-(((4-Chloromethyl)Benzoyl)Amino)Tetramethylrhodamine (CMTMR, Invitrogen) and cocultured for indicated time. […]

The test system of another assay is caspase-3. In words: Cleavage of caspase-3 by immunoblot. Set-up: dose or concentration left out as unconfirmed. The note with it: cisplatin, positive control. Here is the method:
FIG. 7. Effects of TP53 inactivation on cellular cannibalism. (A) Detection of cell-in-cell structures induced by depletion of TP53, as visualized by confocal microscopy. […] Images are representative of at least four independent experiments. (B) Detection of cell-in-cell structures induced by depletion of TP53 by light microscopy. (C) Time-lapse imaging of cellular cannibalism detected after depletion of TP53 on HCT116 cells. After 48 hours of transfection with siRNA against TP53, cells were stained as previously described with CMFDA and CMTMR cell trackers and cocultured under time-lapse confocal videomicroscopy. Indicated numbers represent hours and minutes. […] After 48 hours of TP53 knockdown, cleavage of caspase-3 was analyzed by immunoblot. […] Mitotic events and cellular cannibalism were detected and recorded during approximately fifteen hours. […] ROCK activity was determined by detecting the phosphorylation of myosin light chain 2 on serine 19 (MLC2S19*). […] TP53 knocked down, or TP53 knocked out HCT116 cells were analyzed for MLC2S19*, MLC2 or TP53 by immunoblot. […] Tp53^−/+ and Tp53^−/− HCT116 cells are fixed and analyzed by electron microscopy. […] HCT116 cells were transfected with specific siRNAs for TP53 during 48 hours and expression of TP53 (H) or MLCS19* (I) were determined by immunoblots. […]

The subject of assay [2] is HCT116 cells. Nature of the assay: Release of ATP by ATP-dependent bioluminescence (Enliten ATP assay). As to conditions: HCT116 treated with 10 μM CDDP. Here is the method: FIG. 11. Extracellular ATP and purinergic receptor P2Y2 participate in cellular cannibalism. (A.) Detection of cellular cannibalism after cis-platinium (CDDP) or γ-irradiation (IR) treatment. After 24 hours treatment with 10 μM CDDP or irradiation (IR) with 4 grays, half cell population of colon carcinoma HCT116 cells were stained with green CMFDA cell tracker or with red CMTMR cell tracker and analyzed for cellular cannibalism by confocal microscopy after 24 hours of coculture in presence or in absence of 20 μM of ROCK inhibitor (YI27632) or 100 μM of pan-caspase inhibitor (zVAD). The frequencies of cannibal cells were determined for at least 300 cells in 3 independent experiments (mean+/−s.e.m, *p<0.001). (B-D) Detection of ATP release after stimulation with senescent-induced stresses. Release of ATP on HCT116 cells treated with 10 μM CDDP (B) or 4 gray γ-irradiation (IR) (B) Of depleted for p53 (C) or Δ133p53 (C) was determined 2 hours after the beginning of coculture using ATP-dependent bioluminescence in 3 independent experiments, (D) Effect of ROCK inhibitor on ATP release detected after p53 inactivation. Release of ATP was detected as previously described in presence or in absence of 20 μM of Y27632 (mean+/−s.e.m, *p<0.001). […] The frequencies of cell-in-cell structures were determined for at least 300 cells in 3 independent experiments (mean+/−s.e.m, *p<0.001). […]

In assay [3] the test system is P2Y2 purinergic receptors. In words: P2Y2 expression by immunoblot. As to conditions: HCT116 treated with 10 μM CDDP. For orientation: A western blot detects proteins with antibodies after separation by electrophoresis.

Consider `Nc1ncnc2c1ncn2C1OC(CO[P@SP3](=O)(O)O[P@SP3](=O)(O)O[P@SP3](=O)(O)O)C(O)C1O` (stereo not drawn) [ATP, Adenosine-5′-triphosphate], for which the “generation of cell-in-cell structures after supplementation with nucleotide” value in the assay with HCT116 cells [1] (HCT116) is “strongly enhanced the ROCK-dependent generation of cell-in-cell structures”.
Consider `O=c1ccn([C@@H]2O[C@H](COP(=O)(O)OP(=O)(O)OP(=O)(O)O)[C@@H](O)[C@H]2O)c(=O)[nH]1` [UTP], for which the “generation of cell-in-cell structures after supplementation with nucleotide” value with HCT116 cells [1] (HCT116) is given as “strongly enhanced the ROCK-dependent generation of cell-in-cell structures”.
For `C[C@@H](N)[C@H]1CC[C@H](C(=O)Nc2ccncc2)CC1` [Y26732], the “generation of cell-in-cell structures after TP53 inactivation in presence of inhibitor” value with HCT116 cells [1] is given as “prevented the generation of cell-in-cell structures”.
As to `N.N.[Cl][Pt][Cl]` [cisplatin], the “cleavage of caspase-3” value in the assay on caspase-3 is on record as “intense cleavage of caspase-3”. Also, in the assay with HCT116 cells [2], the “release of ATP” value was “released ATP shortly after treatments”. In assay [3], the “expression of the P2Y2 purinergic receptors” value is recorded as “enhanced the expression of the P2Y2 purinergic receptors”.
In the case of `Cc1ccc(C(=O)Cn2c3c(sc2=N)CCCC3)cc1` [pifithrin-α], the “cell-in-cell structures induced by pharmacological inactivation of TP53” value in the assay with HCT116 cells [1] (HCT116, 10 μM PFT-α, 24 hours coculture) is on record as “induced cell-in-cell structures”.
As for Z-VAD-fmk, in the assay with HCT116 cells [1], the “generation of cell-in-cell structures after TP53 inactivation in presence of inhibitor” value is “not affected”.
Take apyrase: in the assay on HCT116 cells [1] (HCT116, different concentrations of apyrase), the “cellular internalization induced by the depletion of TP53 or Δ133TP53” value is given as “reduced cellular internalization”.
